Among the targets are AKT1 (PKB α) (Homo sapiens, UniProt P31749); AKT3 (PKB γ) (Homo sapiens, UniProt Q9Y243); PKN2 (PRK2) (Homo sapiens, UniProt Q16513).
What all share (assay): Kinase selectivity for OMS14
What all share (type): biochemical

Where [1] appears, read: read-out: % of inhibition (mean).
[2] abbreviates: read-out: % of inhibition, point 1.
[3] abbreviates: read-out: % of inhibition, point 2.

This is an account of results in article PMC10975593 (ACS Omega, 2024).

One may read the inhibition as the drop in the measured response relative to a control, in per cent.

Read-outs that look alike come from different tables or passages of the source.

Chain of AKT1 (PKB α) (P31749 whole entry): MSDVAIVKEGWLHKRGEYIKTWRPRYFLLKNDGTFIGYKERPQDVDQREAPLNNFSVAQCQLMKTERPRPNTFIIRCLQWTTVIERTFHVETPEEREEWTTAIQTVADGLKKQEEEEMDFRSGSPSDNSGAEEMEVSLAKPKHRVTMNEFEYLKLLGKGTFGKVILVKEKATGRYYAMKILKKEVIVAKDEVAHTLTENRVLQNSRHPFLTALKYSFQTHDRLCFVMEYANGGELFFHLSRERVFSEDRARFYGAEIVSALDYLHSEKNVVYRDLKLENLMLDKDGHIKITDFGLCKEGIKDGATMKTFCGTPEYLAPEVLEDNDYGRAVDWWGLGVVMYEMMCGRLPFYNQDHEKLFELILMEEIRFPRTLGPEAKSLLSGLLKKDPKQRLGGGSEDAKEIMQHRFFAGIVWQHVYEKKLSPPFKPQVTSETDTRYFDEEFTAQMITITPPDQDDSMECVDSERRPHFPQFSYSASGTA
Chain of PKN2 (PRK2) (Q16513 whole entry): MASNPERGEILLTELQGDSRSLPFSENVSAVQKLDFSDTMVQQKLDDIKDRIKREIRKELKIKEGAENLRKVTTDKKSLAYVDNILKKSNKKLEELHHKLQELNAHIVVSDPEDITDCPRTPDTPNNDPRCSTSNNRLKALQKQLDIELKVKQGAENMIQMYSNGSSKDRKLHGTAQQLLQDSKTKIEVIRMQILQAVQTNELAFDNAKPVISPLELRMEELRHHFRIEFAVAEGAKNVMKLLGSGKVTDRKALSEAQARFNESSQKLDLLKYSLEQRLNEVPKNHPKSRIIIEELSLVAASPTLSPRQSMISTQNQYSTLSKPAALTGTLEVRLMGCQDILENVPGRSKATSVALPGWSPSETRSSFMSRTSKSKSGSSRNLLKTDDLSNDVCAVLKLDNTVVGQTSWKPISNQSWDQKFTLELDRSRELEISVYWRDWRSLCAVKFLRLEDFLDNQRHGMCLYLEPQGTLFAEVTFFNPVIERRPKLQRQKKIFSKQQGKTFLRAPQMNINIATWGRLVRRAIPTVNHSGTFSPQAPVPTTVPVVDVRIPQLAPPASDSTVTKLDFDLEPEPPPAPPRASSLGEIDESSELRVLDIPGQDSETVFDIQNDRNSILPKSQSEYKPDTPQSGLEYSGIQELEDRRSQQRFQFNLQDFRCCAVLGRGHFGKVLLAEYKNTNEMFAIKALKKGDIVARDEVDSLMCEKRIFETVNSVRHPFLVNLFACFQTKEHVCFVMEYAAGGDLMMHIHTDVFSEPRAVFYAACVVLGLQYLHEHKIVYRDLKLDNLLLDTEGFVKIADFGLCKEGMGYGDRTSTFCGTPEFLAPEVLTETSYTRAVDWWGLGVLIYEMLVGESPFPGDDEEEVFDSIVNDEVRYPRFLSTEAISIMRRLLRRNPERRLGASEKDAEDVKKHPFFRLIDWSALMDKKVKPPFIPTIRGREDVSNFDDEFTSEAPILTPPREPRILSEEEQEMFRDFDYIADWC
Chain of AKT3 (PKB γ) (Q9Y243 whole entry): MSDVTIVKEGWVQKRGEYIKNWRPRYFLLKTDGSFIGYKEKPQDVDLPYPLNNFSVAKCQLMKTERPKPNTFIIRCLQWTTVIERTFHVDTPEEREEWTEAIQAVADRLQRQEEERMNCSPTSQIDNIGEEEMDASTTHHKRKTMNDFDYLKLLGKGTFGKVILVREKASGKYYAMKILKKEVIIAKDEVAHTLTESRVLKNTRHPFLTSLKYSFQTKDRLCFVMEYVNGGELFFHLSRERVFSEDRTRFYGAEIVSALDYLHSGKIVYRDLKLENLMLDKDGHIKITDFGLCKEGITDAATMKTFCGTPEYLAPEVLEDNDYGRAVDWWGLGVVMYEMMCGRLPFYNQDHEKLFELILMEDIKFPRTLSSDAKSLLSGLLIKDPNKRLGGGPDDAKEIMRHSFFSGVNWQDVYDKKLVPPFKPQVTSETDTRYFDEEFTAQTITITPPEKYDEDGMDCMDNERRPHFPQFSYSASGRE

Take `O=C(CN1CCN(CC(=O)Nc2nc3ccccc3s2)CC1)Nc1ccc([N+](=O)[O-])cc1` [OMS14, N-(benzo[d]thiazol-2-yl)-2-(4-(2-((4-nitrophenyl)amino)-2-oxoethyl)piperazin-1-yl)acetamide]: the inhibition at 100 µM is 14% on AKT1 (PKB α) (setting [1]); 11% at AKT1 (PKB α) (setting [2]); 17% on AKT1 (PKB α) (setting [3]); 28% at AKT3 (PKB γ) (setting [1]); 27% on AKT3 (PKB γ) (setting [2]); 29% on AKT3 (PKB γ) (setting [3]). In addition, the inhibition at 100 µM turned out to be 10% on PKN2 (PRK2) (setting [1]), 11% on PKN2 (PRK2) (setting [2]) and 8% on PKN2 (PRK2) (setting [3]).
